# Assay results: DBAASP
# Legend:
# Test in all cases: ≥ marks a high value that may be exact or a test limit, other limits are often not marked, values filed in µg/mL are converted to µM
# [1] = test system: Escherichia coli ATCC 25922
# [2] = test system: Bacillus subtilis ATCC 23857
# Candida albicans = test system: Candida albicans
# Escherichia coli UB1005 = test system: Escherichia coli UB1005
# [3] = test system: Staphylococcus aureus ATCC 25923
# [4] = test system: Pseudomonas aeruginosa H103
# [5] = test system: Staphylococcus epidermidis
# [6] = test system: Salmonella enterica serovar Typhimurium
# [7] = test system: Enterococcus faecalis ATCC 29212
# Escherichia coli K-12 = test system: Escherichia coli K-12
# Bacillus subtilis 168 = test system: Bacillus subtilis 168
# [8] = test system: Pseudomonas aeruginosa PAO1
# [9] = test system: Staphylococcus aureus USA 300
# [10] = test system: Klebsiella pneumoniae ATCC 700603
# [11] = test system: Staphylococcus epidermidis ATCC 12228
# [12] = test system: Pseudomonas aeruginosa ATCC 27853
# [13] = test system: Acinetobacter baumannii ATCC 19606
# [14] = test system: Pseudomonas aeruginosa ATCC 9027
SMILES,MIC [1] [µM],MIC [2] [µM],MIC (Candida albicans) [µM],MIC (Escherichia coli UB1005) [µM],MIC [3] [µM],MIC [4] [µM],MIC [5] [µM],MIC [6] [µM],MIC [7] [µM],MIC [10] [µM],further results
CC[C@H](C)[C@H](NC(=O)CN)C(=O)N[C@H](C(=O)N[C@@H](C)C(=O)NCC(=O)N[C@H](C(=O)N[C@H](C(=O)N[C@@H](CCCCN)C(=O)N[C@H](C(=O)N[C@H](C(=O)N[C@@H](CCCCN)C(=O)N[C@@H](C)C(N)=O)[C@@H](C)CC)[C@@H](C)CC)[C@@H](C)CC)[C@@H](C)CC)[C@@H](C)CC [GIIAGIIKIIKA],> 128,16,,,,,,,,,
CC[C@H](C)[C@H](NC(=O)[C@H](CCCN=C(N)N)NC(=O)[C@H](CCCN=C(N)N)NC(=O)[C@H](CCCN=C(N)N)NC(=O)[C@H](CCCN=C(N)N)NC(=O)[C@@H](NC(=O)[C@@H](N)C(C)C)[C@@H](C)CC)C(=O)N[C@@H](CC(C)C)C(=O)N[C@@H](C)C(=O)N[C@@H](C)C(=O)N[C@H](C(=O)N[C@H](C(N)=O)C(C)C)C(C)C [VIRRRRILAAVV],,,95.7,≥ 95.7,176,≥ 176,≥ 95.7,≥ 95.7,,,
CC[C@H](C)[C@H](NC(=O)[C@H](CCCN=C(N)N)NC(=O)[C@H](C)NC(=O)[C@H](CC(C)C)NC(=O)CN)C(=O)N[C@H](C(=O)N[C@H](C(=O)N[C@H](C(=O)N[C@@H](CCCN=C(N)N)C(=O)N[C@H](C(=O)N[C@@H](C)C(=O)N[C@@H](CCCN=C(N)N)C(N)=O)C(C)C)[C@@H](C)CC)C(C)C)C(C)C [GLARIVVIRVAR],,,94.5,12.1,47.6,≥ 94.5,12.1,≥ 47.6,23.4,,
CC[C@H](C)[C@H](N)C(=O)N[C@@H](Cc1c[nH]c2ccccc12)C(=O)N[C@@H](CC(C)C)C(=O)N[C@H](C(=O)N[C@@H](C)C(=O)N[C@@H](CC(C)C)C(=O)N[C@@H](CCCCN)C(=O)N[C@@H](Cc1ccccc1)C(=O)N[C@@H](CC(C)C)C(=O)NCC(=O)N[C@@H](CCCCN)C(=O)N[C@@H](Cc1cnc[nH]1)C(=O)N[C@@H](C)C(=O)N[C@@H](C)C(=O)N[C@@H](CCCCN)C(=O)N[C@@H](Cc1cnc[nH]1)C(=O)N[C@@H](CC(C)C)C(=O)N[C@@H](C)C(=O)N[C@@H](CCCCN)C(=O)N[C@@H](CCC(N)=O)C(=O)N[C@@H](CCC(N)=O)C(=O)N[C@@H](CC(C)C)C(=O)N[C@@H](CO)C(=O)N[C@@H](CCCCN)C(=O)N[C@@H](CC(C)C)C(=O)O)[C@@H](C)O [IWLTALKFLGKHAAKHLAKQQLSKL],,,,,,,,,,,MIC (Escherichia coli K-12): 25 µM; MIC (Bacillus subtilis 168): 6.25 µM; MIC [8]: 25 µM; MIC [9]: 3.1 µM
CC[C@H](C)[C@H](NC(=O)[C@@H](NC(=O)[C@H](C)NC(=O)[C@@H](NC(=O)[C@H](C)NC(=O)[C@@H](N)CCCN=C(N)N)C(C)C)C(C)C)C(=O)N[C@H](C(=O)N[C@@H](CCCN=C(N)N)C(=O)N[C@@H](CC(C)C)C(=O)N[C@@H](CCCN=C(N)N)C(=O)N[C@@H](CCCN=C(N)N)C(=O)N[C@H](C(N)=O)C(C)C)[C@@H](C)CC [RAVAVIIRLRRV],,,4.22,7.74,16.2,16.2,4.22,7.74,,,
CC(C)C[C@H](NC(=O)[C@H](C)NC(=O)[C@@H](NC(=O)[C@H](CCCCN)NC(=O)[C@H](C)NC(=O)[C@H](CCCN=C(N)N)NC(=O)[C@H](CCCCN)NC(=O)[C@H](C)NC(=O)[C@H](C)NC(=O)CN)[C@@H](C)O)C(N)=O [GAAKRAKTAL],> 512,≥ 512,,,> 512,,,,> 512,> 512,MIC [11]: > 512 µM; MIC [12]: > 512 µM; MIC [13]: > 512 µM
CC(C)C[C@H](NC(=O)[C@H](CC(C)C)NC(=O)[C@H](CCCCN)NC(=O)[C@@H]1CCCN1C(=O)[C@H](CC(C)C)NC(=O)[C@H](CC(C)C)NC(=O)[C@H](CCCCN)NC(=O)[C@H](CC(C)C)NC(=O)[C@H](CC(C)C)NC(=O)[C@H](CO)NC(=O)CNC(=O)[C@H](CC(C)C)NC(=O)[C@@H](N)CC(C)C)C(N)=O [LLGSLLKLLPKLL],,,,,,,,,,,MIC (Escherichia coli K-12): 12.5 µM; MIC (Bacillus subtilis 168): 3.12 µM; MIC [8]: > 100 µM; MIC [9]: 1.1 µM
CC[C@H](C)[C@H](NC(=O)[C@H](CCCCN)NC(=O)[C@H](Cc1c[nH]c2ccccc12)NC(=O)[C@H](CCCCN)NC(=O)[C@@H](N)Cc1ccc(O)cc1)C(=O)N[C@@H](CCCN=C(N)N)C(=O)N[C@@H](Cc1ccccc1)C(=O)N[C@@H](CCCCN)C(=O)N[C@@H](CCCN=C(N)N)C(=O)O [YKWKIRFKR],,,16.3,4.1,4.1,≥ 32.6,1,8.2,16.3,,
CC[C@H](C)[C@H](NC(=O)[C@H](CCCCN)NC(=O)[C@H](C)NC(=O)[C@H](C)NC(=O)[C@@H](NC(=O)[C@H](C)NC(=O)[C@H](CC(C)C)NC(=O)[C@H](CC(C)C)NC(=O)[C@H](C)NC(=O)[C@H](CCCCN)NC(=O)[C@H](CC(C)C)NC(=O)[C@H](CC(N)=O)NC(=O)[C@@H](N)CC(C)C)C(C)C)C(=O)N[C@@H](CC(C)C)C(N)=O [LNLKALLAVAAKIL],8,16,,,4,,,,,32,MIC [14]: 32 µM
CC(C)C[C@H](NC(=O)[C@H](CC(C)C)NC(=O)[C@H](CCCCN)NC(=O)[C@@H]1CCCN1C(=O)[C@H](CC(C)C)NC(=O)[C@H](CC(C)C)NC(=O)[C@H](CCCCN)NC(=O)[C@H](CC(C)C)NC(=O)[C@H](CC(C)C)NC(=O)[C@H](CO)NC(=O)CNC(=O)[C@H](Cc1ccccc1)NC(=O)[C@@H](N)Cc1ccccc1)C(N)=O [FFGSLLKLLPKLL],,,,,,,,,,,MIC (Escherichia coli K-12): 12.5 µM; MIC (Bacillus subtilis 168): 3.12 µM; MIC [8]: 70.7 µM; MIC [9]: 1.1 µM
CC[C@H](C)[C@H](NC(=O)[C@H](CCCCN)NC(=O)[C@H](CCCCN)NC(=O)[C@H](C)NC(=O)[C@@H](NC(=O)[C@H](C)NC(=O)[C@H](CC(C)C)NC(=O)[C@H](CC(C)C)NC(=O)[C@H](CCCCN)NC(=O)[C@H](CCCCN)NC(=O)[C@H](CC(C)C)NC(=O)[C@H](CC(N)=O)NC(=O)[C@@H](N)CC(C)C)C(C)C)C(=O)N[C@@H](CC(C)C)C(N)=O [LNLKKLLAVAKKIL],4,2,,,8,,,,,4,MIC [14]: 4 µM
NCCCC[C@H](NC(=O)[C@H](Cc1ccccc1)NC(=O)[C@H](CCCN=C(N)N)NC(=O)[C@H](CCCCN)NC(=O)[C@H](CCCCN)NC(=O)[C@H](CCCN=C(N)N)NC(=O)[C@@H](N)CCCCN)C(=O)N[C@@H](Cc1c[nH]c2ccccc12)C(=O)N[C@@H](Cc1c[nH]c2ccccc12)C(=O)O [KRKKRFKWW],,,41.2,20.6,2.6,≥ 115,2.6,20.6,10.3,,
CC(C)C[C@H](NC(=O)[C@H](CC(C)C)NC(=O)[C@@H](NC(=O)[C@H](CCCCN)NC(=O)[C@H](Cc1c[nH]c2ccccc12)NC(=O)[C@H](CCCN=C(N)N)NC(=O)[C@H](CCCCN)NC(=O)[C@H](CC(C)C)NC(=O)[C@H](CC(C)C)NC(=O)CN)[C@@H](C)O)C(N)=O [GLLKRWKTLL],64,≥ 128,,,128,,,,256,64,MIC [11]: 16 µM; MIC [12]: 4 µM; MIC [13]: 256 µM
CC[C@H](C)[C@H](N)C(=O)N[C@@H](CC(C)C)C(=O)N[C@@H](CCCN=C(N)N)C(=O)N[C@@H](Cc1c[nH]c2ccccc12)C(=O)N[C@@H](CCCCN)C(=O)N[C@@H](Cc1c[nH]c2ccccc12)C(=O)N[C@@H](CCCN=C(N)N)C(=O)N[C@@H](Cc1c[nH]c2ccccc12)C(=O)N[C@@H](Cc1c[nH]c2ccccc12)C(=O)N[C@@H](CCCN=C(N)N)C(=O)N[C@@H](Cc1c[nH]c2ccccc12)C(=O)N[C@@H](CCCN=C(N)N)C(=O)N[C@@H](CCCN=C(N)N)C(=O)O [ILRWKWRWWRWRR],,,5.7,1.4,0.7,5.7,0.7,2.9,2.9,,
CC(C)C[C@H](NC(=O)[C@H](Cc1ccccc1)NC(=O)CN)C(=O)N[C@@H](CCCCN)C(=O)N[C@@H](CCCN=C(N)N)C(=O)N[C@@H](Cc1ccccc1)C(=O)N[C@@H](CCCCN)C(=O)N[C@H](C(=O)N[C@@H](CC(C)C)C(=O)N[C@@H](Cc1ccccc1)C(N)=O)[C@@H](C)O [GFLKRFKTLF],64,≥ 64,,,64,,,,128,128,MIC [11]: 8 µM; MIC [12]: 8 µM; MIC [13]: 128 µM
